# In PMC4783973, “Synthetic Human TLR9-LRR11 Peptide Attenuates TLR9 Signaling by Binding to and thus Decreasing Internalization of CpG Oligodeoxynucleotides” (International Journal of Molecular Sciences, 2016):
# Like-named read-outs stand apart in the source and are kept apart here.
# Tests used:
# [1] = cited from earlier work
# From the text: (§1) CpG ODN must be internalized within cells before activating TLR9 signaling and inducing cytokines release. Thus, interfering with CpG ODN internalization probably leads to reduced activation of TLR9 signaling.
# TLR signaling = conditions: inhibitors of clathrin-mediated phagocytosis; ref [24]; cited from earlier work
# From the text: as §1
# LPS/TLR4 = assay: LPS (TLR4)-induced TNF-α and IL-6 release from RAW264.7 cells (ELISA); assay type: cell-based, mouse; conditions: LPS 20 ng/mL; n = 3 (Figure 2)
# Experimental: (§2) Experiments were performed as described in Figure 1. The concentrations of ODN2006, LPS, PAM3 and SP were 1.5 μM, 20 ng/mL, 5 μg/mL and 1.5 μM, respectively. Data from one of three independent experiments are shown (n = 3).
# (§3) The RAW264.7 cell line was purchased from American Type Culture Collection (ATCC, Manassas, VA, USA). Cells were cultured in DMEM (high glucose) medium containing 10% FCS in a 37 °C humidified atmosphere with 5% CO2. Cells diluted with 0.4% trypan blue in phosphate-buffered saline (PBS, 0.1 mM, pH 7.2–7.4) were counted using a hemocytometer.
# (§4) RAW264.7 cells (4.0 × 10^5 cells) were incubated in 48-well plates for 4 h, and supernatants were replaced with 0.4 mL of serum-free DMEM medium containing 1.5 μM of ODN2006 or ODN107, which had been preincubated with 0, 0.5, 1.5 or 4.5 μM of SP or 4.5 μM of URP at 37 °C for 15 min. After incubation for 6 h, the supernatants were collected to detect TNF-α and IL-6 concentrations using corresponding ELISA kits (eBioscience).
# PAM3/TLR1/TLR2 = assay: PAM3CSK4 (TLR1/2)-induced TNF-α and IL-6 release from RAW264.7 cells (ELISA); assay type: cell-based, mouse; conditions: PAM3 5 μg/mL; n = 3 (Figure 2)
# Experimental: as §2, §3, §4
# NF-κB p65 subunit = assay: NF-κB activity assay, p65 subunit in nuclear extract of RAW264.7 cells (Trans^AM ELISA); assay type: cell-based; conditions: CpG ODN 1.5 μM; 4 h; n = 3
# Experimental: Figure 3 Synthetic peptide (SP) inhibited NF-κB activation induced by CpG oligodeoxynucleotides (CpG ODN) in RAW264.7 cells. RAW264.7 cells (5.0 × 10^6 cells) grown in six-well plates were treated with 1.5 μM of ODN2006 (A) or ODN107 (B) preincubated with SP (0, 0.5, 1.5, or 4.5 μM) or unrelated peptide (URP) (4.5 μM) at 37 °C for 15 min. After incubation for 4 h, the cells were collected to extract nuclear proteins. The p65 subunit was detected using enzyme-linked immunosorbent assay (ELISA) kits. Data from one of three independent experiments are shown (n = 3). “*”, p < 0.05 vs. ODN2006 or ODN107; “**”, p < 0.01 vs. ODN2006 or ODN107; “#”, p > 0.05 vs. ODN2006 or ODN107.
# as §3
# RAW264.7 cells (5.0 × 10^6 cells) were placed in six-well plates for 4 h, and the supernatants were then replaced with fresh medium containing 1.5 μM of ODN2006 or ODN107 that had been preincubated with SP (0, 0.5, 1.5, or 4.5 μM) or URP (4.5 μM) at 37 °C for 15 min. After incubation for 4 h, the cells were collected to extract nuclear proteins. Equal amounts of each sample were used to detect the DNA binding activity of the NF-κB p65 subunit using Trans^AM NF-κB ELISA kits (Active Motif), according to the manufacturer’s instructions.
# RAW264.7 cells [2] = assay: TNF-α and IL-6 release from RAW264.7 cells, both cytokines stated together (ELISA); assay type: cell-based, mouse; conditions: for effect on TNF-α and IL-6 release (CpG ODN stimulation): CpG ODN 1.5 μM, 6 h, n = 4 (Figure 1)
# Experimental: Figure 1 Synthetic peptide (SP) decreased TNF-α and IL-6 release from RAW264.7 cells treated with CpG oligodeoxynucleotides (CpG ODN). RAW264.7 cells (4.0 × 10^5 cells) grown in 48-well plates were treated with 1.5 μM of ODN2006 or ODN107 preincubated with SP (0, 0.5, 1.5, or 4.5 μM) or unrelated peptide (URP) (4.5 μM) at 37 °C for 15 min. After incubation for 6 h, the supernatants were collected to detect TNF-α (A) and IL-6 (B) using enzyme-linked immunosorbent assay (ELISA) kits. Data from one of three independent experiments are shown (n = 4). “*”, p < 0.05 vs. ODN2006 or ODN107; “**”, p < 0.01 vs. ODN2006 or ODN107; “#”, p > 0.05 vs. ODN2006 or ODN107.
# as §2, §3, §4
# [3] = system: CpG ODN-induced cytokine release; conditions: ref [19],[20]; cited from earlier work
# From the text: CpG ODN-induced diseases, such as sepsis and some autoimmune disorders, are triggered by uncontrolled release of proinflammatory cytokines, e.g., TNF-α and IL-6 [18]. […] Herein, we firstly evaluated the inhibitory effect of SP on CpG ODN-induced cytokine release in the cellular tests. Tw ... || NF-κB is one of the most important inflammatory switches that comprise a series of transcription factors that regulate the expressions of various proinflammatory cytokines (IL-1, IL-6, IL-8 and TNF-α). NF-κB activation is depended on the degradation and phosphorylation of IκBα [12].
# RAW264.7 cells [4] = assay: competitive internalization experiment with non-labeled ODN2006, confocal; assay type: cell-based; conditions: SP 1.5 μM, FAM-2006 1.5 μM, 30 min, n = 100
# Experimental: However, the results could not exclude the possibility that SP might act on FAM not ODN2006 itself. Therefore, a competitive internalization experiment using non-labeled ODN2006 was performed. Non-labeled ODN2006 and FAM-2006 have same ability to bind SP, but FAM had no such ability. If SP specifically acted on ODN2006, non-labeled ODN2006 might increase FAM-2006 internalization, and the intracellular fluorescence intensity would increase. […] Therefore, FAM-2006 could completely enter the cells, resulting in a subsequent increase in intracellular fluorescence.
# Figure 7 Non-labeled ODN2006 restored internalization of FAM-labeled ODN2006 preincubated with synthetic peptide (SP) (Scale bar = 20 μm). […] The intracellular FAM-2006 (green) (A), mean fluorescence intensity (MFI) values (B) and the percentages of cells with FAM-2006 dots (green fluorescence) (C) were observed as described in Figure 5 (n = 100). […]
# RAW264.7 cells (1.0 × 10^6 cells) were grown on 2-cm glass bottom dishes for 4 h, and supernatants were replaced with 1 mL of serum-free DMEM medium containing FAM-2006 (1.5 μM) that had been pre-incubated with SP (0, 0.5, 1.5 or 4.5 μM) at 37 °C for 15 min. […] The intracellular FAM-2006 (green fluorescence) was observed using a laser confocal microscope. Mean fluorescence intensity (MFI) values were calculated by the ZEN lite 2012 software.
# IκBα = IκBα degradation and phosphorylation in RAW264.7 cells (western blotting); assay type: cell-based; conditions: ODN2006 1.5 μM; 4 h
# Experimental: Figure 4 Synthetic peptide (SP) decreased the phosphorylation of IκBα and ERK1/2 in RAW264.7 cells treated with CpG oligodeoxynucleotides (CpG ODN). RAW264.7 cells (1.0 × 10^7 cells) grown in 10-cm dishes were treated with 1.5 μM of ODN2006 (A) or ODN107 (B) pre-incubated with SP (0, 0.5, 1.5, or 4.5 μM) at 37 °C for 15 min. After incubation for 4 h, cells were harvested to extract total protein; and the protein expressions of IκBα, phosphorylated (p)-IκBα, ERK1/2 and p-ERK1/2 were detected by western blotting. Data from one of three independent experiments are shown.
# as §3
# RAW264.7cells (1.0 × 10^7 cells) were incubated in dishes for 4 h, and the supernatants were replaced with fresh medium containing 1.5 μM of ODN2006 that had been preincubated with 0.5, 1.5 or 4.5 μM of SP for 15 min. Cells were sequentially cultured for another 4 h and then harvested to extract total proteins. Equal amounts of proteins from each treatment were separated by SDS-PAGE, and transferred onto 0.22 μm PVDF membranes (Bio-Rad). […]
compound,measurement,setting,value
O=C(N/N=C/c1ccc(O)c(O)c1)c1cc2ccccc2cc1O [dynasore],cell toxicity,[1]; ref [24],distinct cell toxicity
same,effect on TLR signaling,TLR signaling,significant inhibitory effects on TLR signaling
CN(C)c1cccc2c(S(=O)(=O)NCCCCCN)cccc12 [monodansylcadaverine],cell toxicity,[1],distinct cell toxicity
same,effect on TLR signaling,TLR signaling,significant inhibitory effects on TLR signaling
lipopolysaccharide [LPS],effect on TNF-α and IL-6 release (stimulation),LPS/TLR4,significantly increased
PAM3CSK4,effect on TNF-α and IL-6 release (stimulation),PAM3/TLR1/TLR2,significantly increased
"5′-TGGCGCGGGCGG-3′ (DNA, all phosphorothioate, methylation of C not given here) [ODN107, a stimulatory CpG ODN developed in our laboratory]",effect on activation of p65 (CpG ODN stimulation),NF-κB p65 subunit,significantly increased
same,effect on TNF-α and IL-6 release (CpG ODN stimulation),RAW264.7 cells [2],significantly increased
CCN(CC)CCCC(C)Nc1ccnc2cc(Cl)ccc12 (stereo not shown) [chloroquine],effect on CpG ODN-induced cytokine release,[3],inhibitors of CpG ODN-induced cytokine release
same,effect on proinflammatory cytokines,[3],inhibited proinflammatory cytokines
5′-TCGTCGTTTTGTCGTTTTGTCGTT-3′ [ODN2006],"MFI and percentage of cells with green fluorescence (FAM-2006 + SP, competition)","RAW264.7 cells [4]; non-labeled ODN2006 0, 0.5, 1.5 or 4.5 μM, dose-dependent",increased the MFI and the percentage of cells with green fluorescence
same,restoration of FAM-2006 internalization (competition),RAW264.7 cells [4]; non-labeled ODN2006 4.5 μM,completely restore cell internalization of FAM-2006
same,levels of IκBα phosphorylation and degradation (CpG ODN stimulation),IκBα,significantly increased
same,effect on activation of p65 (CpG ODN stimulation),NF-κB p65 subunit,significantly increased
same,effect on TNF-α and IL-6 release (CpG ODN stimulation),RAW264.7 cells [2],significantly increased
same,effect on TNF-α and IL-6 release (stimulation),"RAW264.7 cells [2]; ODN2006 1.5 μM, n = 3 (Figure 2)",significantly increased
